In publication PMC8962522, “Direct interaction of TrkA/CD44v3 is essential for NGF-promoted aggressiveness of breast cancer cells” (Journal of Experimental & Clinical Cancer Research : CR, 2022):

Legend:
SUM-159-PT cells [1] = assay: Clonogenicity assay, SUM-159-PT; type: cell-based; conditions: Supplementary Fig. 9 A & B (P4; same observations = colony forming units reduced as in MDA-MB-231), Supplementary Fig. 10 B (siCD44v3)
TrkA = assay: nanoDSF peptide binding to TrkA; conditions: nanoscale differential scanning fluorimetry, Supplementary Fig. 6A & B
Procedure: To block the TrkA-CD44v3 association, 4 mimetic peptides of CD44v3 were designed corresponding to zone 1 [(K) STSSNTISAG], zone 2 (WEPNEENEDE), zone 3 (RDRHLSFSGSG) and zone 4 (IDDDEDFISST) (Fig. 2F & G). The binding capacities of the CD44v3 mimetic peptides to TrkA were then measured by MST (Fig. 2H). […] To confirm mimetic peptide 4 binding, we assessed its ability to bind TrkA using nanoscale differential scanning fluorimetry (nanoDSF; Supplementary Fig. 6A & B).
Supplementary file 13046_2022_2314_MOESM3_ESM.pdf: Additional file 3: Supplementary Figure 1. Validation of the ectopic expression of CD44 and/or TrkA in COS-7 cells. The expression of all CD44 isoforms (A), CD44 variant 3 (B), CD44 variant 6 (C) and TrkA ([…]; D) was evaluated by RT–qPCR (normalized using PUM-1). No expression of CD44, CD44 variants [3 or 6] or TrkA was detected in COS-7 cells (A-D) compared with that in cells transfected with the expression plasmid carrying each protein. […] Quantification of the PLA results was performed using ImageJ software (30 randomly chosen fields per condition of three different experiments). […] CD44v3 and CD44v6 levels at the plasma membrane were assessed by flow cytometry (A-D). The plasma membrane and total TrkA and CD44v3 levels were also quantified by confocal microscopy (E-H). […] The CD44v3/NGF interaction was evaluated using microscale thermophoresis (MST). […]

SUM-159-PT cells [2] = assay: Scratch/wound migration assay, SUM-159-PT; type: cell-based; conditions: 24 h after treatment; Supplementary Fig. 9 C & D; effects as in MDA-MB-231 (inhibition of NGF-induced migration)
[3] = tested on: TrkA/CD44v6 complex in MDA-MB-231 cells; assay: PLA TrkA/CD44v6 complex formation in MDA-MB-231 cells; type: cell-based; conditions: NGF 100 ng/ml; 30 fields per condition, three experiments
Procedure: Cells (10,000 cells per well) were grown on acid-washed eight-well glass slides (Thermo Scientific) in the appropriate medium supplemented with 10% FBS for 24 h. After NGF treatment, paraformaldehyde (PAF)-fixed cells were incubated with 4% bovine serum albumin (BSA) or 5% FBS (for 1 h at 20 °C), followed by overnight incubation with primary antibodies (rabbit anti-TrkA or rabbit anti-IgG + mouse anti-pan-CD44; mouse anti-CD44v3; mouse anti-CD44v6; mouse anti-IgG2a; mouse anti-IgG2b; or mouse anti-IgG1). PLA was performed following the manufacturer’s instructions in the assay kit (Duolink PLA; Sigma–Aldrich). To obtain the correct representation of the PLA signal for each condition, 30 fields per condition were observed using a fluorescence microscope (Eclipse TiU; Nikon, Japan). The PLA signals (red dots) were automatically quantified using ImageJ software (with an in-house-developed plug-in). […]
Fig. 3 CD44v3 mimetic peptide 4 blocks the TrkA-CD44 association in MDA-MB-231 breast cancer cells. TrkA/CD44v3 (A) and TrkA/CD44v6 (B) complex associations were detected by the proximity ligation assay (PLA) in MDA-MB-231 breast cancer cells. […] Quantification of the PLA results was performed by ImageJ software (30 randomly chosen fields per condition of three different experiments). […]

Substance | effect on clonogenic growth of SUM-159-PT cells (SUM-159-PT cells [1]) | binding to TrkA by nanoDSF (in words) (TrkA) | binding to TrkA by nanoDSF (in words) (TrkA; listed as P4) | effect on migration of SUM-159-PT cells (SUM-159-PT cells [2]) | effect on TrkA/CD44v6 complex formation (PLA) in MDA-MB-231 cells [3]
IDDDEDFISST [Peptide 4, mimetic peptide 4 (…) corresponding to the C-terminal region of CD44v3] | The same observations were made in SUM-159PT | bound TrkA | binds to TrkA | We also confirmed the effects of CD44v3 mimetic peptide 4 on migration in SUM-159-PT cells | 
NGF: recombinant human β-NGF (Alomone Labs, Israel) |  |  |  |  | did not induce TrkA/CD44v6 complex formation
